According to paper PMC11946258, “Self-Assembly, Antimicrobial Properties and Biodegradability of Ester-Functionalized Choline-Based Surface-Active Ionic Liquids” (Molecules, 2025):

What was measured:
[1] = Critical micelle concentration by pyrene fluorescence; type: physicochemical; details: fluorescence (pyrene I1/I3), aqueous solution, 25 °C
Procedure: The aggregation behavior of ester-functionalized choline-based ILs was investigated through fluorescence measurements using pyrene as a solvatochromic probe. By monitoring the polarity of pyrene’s microenvironment at varying IL concentrations, the intensity ratio of pyrene’s first (I1) and third (I3) vibronic peaks was analyzed (Figure 3). A sharp decline in the I1/I3 ratio indicated the formation of IL aggregates. The critical micelle concentration (CMC) was determined as the midpoint of the transition, with the data fitting well to sigmoidal Boltzmann-type curves.
A Shimadzu RF 540 spectrofluorometer equipped with cell holder thermostatical controlled at 25 °C was used to detect steady-state fluorescence. The fluorescent probe, pyrene, was used at a concentration of 1 × 10^−6 M. After irradiation at 332 nm, the fluorescence emission spectra of pyrene dissolved in aqueous CnECholBr solutions were recorded from 340 to 450 nm.

[2] = test system: MRSA biofilm; assay: MRSA biofilm formation inhibition (crystal violet); type: cell-based, methicillin-resistant Staphylococcus aureus; details: Staphylococcus aureus, at 128 µg/mL (highest concentration tested), 24 h, 37 °C, CV staining
Procedure: To assess the ability of ester-functionalized cholinium-based ILs to suppress MRSA biofilm formation, CnECholBr samples were introduced to newly prepared bacterial suspensions. These mixtures were then incubated for 24 h at 37 °C. Subsequently, crystal violet (CV) staining was employed to quantify the biofilm biomass. The findings from this experiment are illustrated in Figure 4.
Antibiofilm activity was assessed against biofilm-forming strains of methicillin-resistant Staphylococcus aureus (MRSA) ATCC 43300 and Candida albicans ATCC 90028. The biofilm inhibition and eradication capacities of ILs were evaluated against adherent bacterial biofilms grown in 96-well microtiter plates. Bacteria were grown on Tryptic soy agar at 37 °C for 24 h and the fungi on Sabouraud agar at 30 °C for 24 h. Bacteria were suspended in lysogeny broth containing glucose (1%) at 1.5 × 10^8 CFU/mL and yeasts were suspended in RPMI medium at 1.5 × 10^7 CFU/mL.
To assess the effect of ionic liquids on bacterial biofilm formation, we employed a microplate assay. We added 100 μL of IL at varying concentrations (2–128 μg/mL, using two-fold serial dilutions) to each well of a 96-well microplate, followed by 100 μL of diluted bacterial suspension. After incubating the plates at 37 °C for 24 h, we measured bacterial growth by recording the optical density at 600 nm (OD600). We then discarded the spent media, fixed the biofilm with methanol, and stained it with crystal violet. Following a water rinse, we dissolved the stained biofilm using an ethanol-acetic acid solution and measured the absorbance at 570 nm to quantify biofilm formation. To ensure reproducibility, we performed each assay in triplicate and averaged the results.

Row | SMILES | CMC [1] [mM] | inhibition at 128 µg/mL [2] [%]
1 | CCCCCCCCCCOC(=O)C[N+](C)(C)CCO [C10ECholBr] | 9.0 ± 0.5 | < 15
2 | CCCCCCCCCCCCOC(=O)C[N+](C)(C)CCO [C12ECholBr] | 2.9 ± 0.1 | > 90
3 | CCCCCCCCCCCCCCOC(=O)C[N+](C)(C)CCO.[Br-] [C14ECholBr, N-(2-hydroxyethyl)-N,N-dimethyl-2-oxo-2-(tetradecyloxy)ethan-1-aminium bromide] | 1.3 ± 0.1 | ≤ 50
